According to patent US4062948A, “Dihydromocimycin antibiotics” (Gist-Brocades N.V., priority 1970, dated 1977):
≈ marks a conversion by molar mass, not a printed value. Entries after “also recorded” stand apart in the source; their conditions may differ.

Key:
[1] = system: Listeria monocytogenes A2132; test: Agar dilution tests; format: cell-based; conditions: anaerobic culture, read-out: Minimum inhibitory concentration
[2] = system: Bacillus thuringiensis W11; test: Liquid dilution tests; format: cell-based; conditions: read-out: Minimum inhibitory concentration
[3] = system: Bacillus subtilis 220 D178; test: Liquid dilution tests; format: cell-based; conditions: read-out: Minimum inhibitory concentration
[4] = system: Bacillus cereus B569; test: Liquid dilution tests; format: cell-based; conditions: read-out: Minimum inhibitory concentration
[5] = system: Bacillus subtilis ATCC 6633; test: Liquid dilution tests; format: cell-based; conditions: ATCC6633, read-out: Minimum inhibitory concentration
[6] = system: Brucella suis (smooth) A2126; test: microbe, parasite or virus in culture; format: cell-based; conditions: read-out: Minimum inhibitory concentration
[7] = system: Bacillus cereus D261; test: Liquid dilution tests; format: cell-based; conditions: read-out: Minimum inhibitory concentration
[8] = Solubility; format: physicochemical
[9] = system: Staphylococcus aureus A 2001; test: Agar dilution tests; format: cell-based; conditions: A2001, anaerobic culture, read-out: Minimum inhibitory concentration
[10] = system: Bacillus subtilis ATCC 6051; test: Liquid dilution tests; format: cell-based; conditions: ATCC6051, read-out: Minimum inhibitory concentration
[11] = system: Clostridium septicum A2152; test: Agar dilution tests; format: cell-based; conditions: anaerobic culture, read-out: Minimum inhibitory concentration
[12] = system: Pasteurella haemolytica A2136; test: Agar dilution tests; format: cell-based; conditions: Mannheimia haemolytica, anaerobic culture, read-out: Minimum inhibitory concentration
[13] = system: Bacillus cereus D220; test: Liquid dilution tests; format: cell-based; conditions: read-out: Minimum inhibitory concentration
[14] = system: Diplococcus pneumoniae L54; test: Agar dilution tests; format: cell-based; conditions: Streptococcus pneumoniae, anaerobic culture, read-out: Minimum inhibitory concentration
[15] = system: Clostridium perfringens A738; test: microbe, parasite or virus in culture; format: cell-based; conditions: A738, read-out: Minimum inhibitory concentration
[16] = system: Streptococcus zocepidemicus A2144; test: Agar dilution tests; format: cell-based; conditions: anaerobic culture, read-out: Minimum inhibitory concentration
[17] = system: Streptococcus haemolyticus A2182; test: Liquid dilution tests; format: cell-based; conditions: read-out: Minimum inhibitory concentration
[18] = system: Escherichia coli U20; test: Agar dilution tests; format: cell-based; conditions: anaerobic culture, read-out: Minimum inhibitory concentration
[19] = system: R-Streptococcen A2148; test: Agar dilution tests; format: cell-based; conditions: read-out: Minimum inhibitory concentration
[20] = growth and feed-conversion of animals being fattened; format: in vivo; conditions: low concentration in feed; chickens or pigs
Description: Many properties of dihydromocimycin are similar to those of mocimycin.

[21] = system: Bacillus cereus var. mycoides; test: microbe, parasite or virus in culture; format: cell-based; conditions: read-out: Minimum inhibitory concentration
[22] = system: Bacillus subtilis 6346 D167; test: Liquid dilution tests; format: cell-based; conditions: read-out: Minimum inhibitory concentration
[23] = system: Bacillus mesenterium D169; test: Liquid dilution tests; format: cell-based; conditions: read-out: Minimum inhibitory concentration
[24] = system: Bacillus subtilis TH 10; test: Liquid dilution tests; format: cell-based; conditions: TH10, read-out: Minimum inhibitory concentration
[25] = system: Streptococcus haemolyticus A266; test: Liquid dilution tests; format: cell-based; conditions: A266, read-out: Minimum inhibitory concentration
[26] = system: Bacillus cereus TH 1; test: Liquid dilution tests; format: cell-based; conditions: TH1, read-out: Minimum inhibitory concentration
[27] = system: Listeria monocytogenes A2131; test: Agar dilution tests; format: cell-based; conditions: anaerobic culture, read-out: Minimum inhibitory concentration
[28] = system: Staphylococcus aureus A 2000; test: Agar dilution tests; format: cell-based; conditions: A2000, anaerobic culture, read-out: Minimum inhibitory concentration
[29] = system: same microorganisms as mocimycin; test: in vitro antimicrobial activity, comparison of the two antibiotics; format: cell-based
[30] = system: Streptomyces viridochromogenes; test: Liquid dilution tests; format: cell-based; conditions: read-out: Minimum inhibitory concentration
[31] = system: Bacillus cereus D166; test: Liquid dilution tests; format: cell-based; conditions: read-out: Minimum inhibitory concentration
[32] = system: Treponema spec. A2275; test: Agar dilution tests; format: cell-based; conditions: anaerobic culture, read-out: Minimum inhibitory concentration
[33] = system: Mycoplasma hyorhinus A2230; test: Liquid dilution tests; format: cell-based; conditions: A2230, read-out: Minimum inhibitory concentration
[34] = system: Salmonella typhimurium R172; test: Agar dilution tests; format: cell-based; conditions: Salmonella enterica, anaerobic culture, read-out: Minimum inhibitory concentration
[35] = system: Listeria monocytogenes A2130; test: Agar dilution tests; format: cell-based; conditions: anaerobic culture, read-out: Minimum inhibitory concentration
[36] = Stability of the solid antibiotic; format: physicochemical; conditions: for stable (solid): 100% relative humidity
[37] = system: Mycoplasma gallisepticum; test: in vivo activity against Mycoplasma gallisepticum
[38] = system: Staphylococcus aureus L 160a; test: micro liquid serial dilution test (Table II); format: cell-based; conditions: 18 h, read-out: Minimum inhibitory concentration
Protocol: The microbiological activity of the antibiotic preparation towards a number of micoorganisms has been determined by a micro liquid serial dilution test:
A stock solution of the test compounds at a concentration of 200 μg/ml in 0.05 molar phosphate buffer at a pH of 6.5 was prepared and serial 1:1 dilutions were made with a liquid medium inoculated with the test organism, using conventional glass spot-test plates. The plates were incubated 18 hours at 30° C or 37° C. The minimum inhibitory concentration (MIC) which is the smallest concentration of compound completely inhibiting the growth of the test organism is read and calculated in μg/ml.
wherein ') indicates penicillinase-producer; ") indicates recently isolated hospital strain.

[39] = system: Brucella melitensis A 488; test: microbe, parasite or virus in culture; format: cell-based; conditions: A488, 18 h, read-out: Minimum inhibitory concentration
[40] = system: rats; test: three-month oral toxicity in rats; format: in vivo; conditions: up to 0.1% in the diet, three months
Description: The toxicity of the antibiotic has been studied in various animals.

SMILES: CC=CC=CC1OC(O)(C(CC)C(=O)NCC=CC=C(C)C(OC)C(C)C2OC(C=CC=CC=C(C)C(=O)C3=C(O)CCNC3=O)C(O)C2O)C(O)C(O)C1(C)C (stereo not drawn) [dihydromocimycin]
- MIC [1]: 6 µg/mL (≈ 7.51 µM)
- MIC [2]: 0.9 µg/mL (≈ 1.13 µM)
- MIC [3]: 75 µg/mL (≈ 93.9 µM)
- MIC [4]: 1.2 µg/mL (≈ 1.5 µM)
- MIC [5]: 50 µg/mL (≈ 62.6 µM)
- MIC [6]: 0.4 µg/mL (≈ 0.501 µM)
- MIC [7]: 0.6 µg/mL (≈ 0.751 µM)
- solubility ([8]; carbon tetrachloride and benzene (dihydromocimycin)): moderate
- solubility ([8]; chloroform, methyl isobutyl ketone, ethyl acetate, butyl acetate, acetone, dioxan, methanol, ethanol, tetrahydrofuran, weakly alkaline aqueous solutions): good
- solubility ([8]; diethyl ether, water, weakly acid aqueous solutions, cyclohexane and petroleum ether): insoluble
- MIC [9]: > 100 µg/mL
- MIC [10]: 50 µg/mL (≈ 62.6 µM)
- MIC [11]: 10 µg/mL (≈ 12.5 µM)
- MIC [12]: 1.5 µg/mL (≈ 1.88 µM)
- MIC [13]: 0.9 µg/mL (≈ 1.13 µM)
- MIC [14]: < 0.75 µg/mL
- MIC [15]: > 100 µg/mL
- MIC [16]: 6 µg/mL (≈ 7.51 µM)
- MIC [17]: 0.12 µg/mL (≈ 0.15 µM)
- MIC [18]: 100 µg/mL (≈ 125 µM)
- MIC [19]: 3 µg/mL (≈ 3.75 µM)
- growth and feed-conversion [20]: does not show any improvement of the growth or feed-conversion; also recorded: does not show the aforesaid properties
- MIC [21]: 0.45 µg/mL (≈ 0.563 µM)
- MIC [22]: 0.9 µg/mL (≈ 1.13 µM)
- MIC [23]: 50 µg/mL (≈ 62.6 µM)
- MIC [24]: 50 µg/mL (≈ 62.6 µM)
- MIC [25]: 0.45 µg/mL (≈ 0.563 µM)
- MIC [26]: 1.2 µg/mL (≈ 1.5 µM)
- MIC [27]: 6 µg/mL (≈ 7.51 µM)
- MIC [28]: > 100 µg/mL
- in vitro activity compared with mocimycin [29]: in many cases it shows even a better activity than mocimycin; also recorded: more active than mocimycin against many microorganisms
- MIC [30]: 0.9 µg/mL (≈ 1.13 µM)
- MIC [31]: 0.6 µg/mL (≈ 0.751 µM)
- MIC [32]: 10 µg/mL (≈ 12.5 µM)
- MIC [33]: 0.3 µg/mL (≈ 0.375 µM)
- MIC [34]: > 100 µg/mL
- MIC [35]: 1.5 µg/mL (≈ 1.88 µM)

SMILES: CC=CC=CC1OC(O)(C(CC)C(=O)NCC=CC=C(C)C(OC)C(C)C2OC(C=CC=CC=C(C)C(=O)c3c(O)cc[nH]c3=O)C(O)C2O)C(O)C(O)C1(C)C (stereo not drawn) [mocimycin]
- MIC [1]: 6 µg/mL (≈ 7.53 µM)
- no loss in activity of the solid ([36]; 25° C and 37° C, low relative humidities): at least 5 months
- stable (solid) ([36]; 25° C): 3 months
- stable (solid) ([36]; 37° C): 2 months
- MIC [2]: 1.2 µg/mL (≈ 1.51 µM)
- MIC [3]: 75 µg/mL (≈ 94.1 µM)
- activity against Mycoplasma gallisepticum in vivo [37]: no activity
- MIC [4]: 2.5 µg/mL (≈ 3.14 µM)
- MIC [5]: 100 µg/mL (≈ 125 µM)
- MIC [6]: 0.75 µg/mL (≈ 0.941 µM)
- MIC [7]: 0.9 µg/mL (≈ 1.13 µM)
- solubility ([8]; carbon tetrachloride and benzene (mocimycin)): poor
- solubility ([8]; chloroform, methyl isobutyl ketone, butyl acetate, ethyl acetate, acetone, methanol and alkaline solutions): good
- solubility ([8]; diethyl ether, petroleum ether, water and acid solutions): insoluble
- solubility ([8]; pH 9): poorly soluble
- MIC [9]: > 100 µg/mL
- MIC [10]: 100 µg/mL (≈ 125 µM)
- MIC [11]: 10 µg/mL (≈ 12.5 µM)
- MIC [12]: 3 µg/mL (≈ 3.76 µM)
- MIC [13]: 1.2 µg/mL (≈ 1.51 µM)
- MIC [38]: > 200 µg/mL
- MIC [14]: 1.5 µg/mL (≈ 1.88 µM)
- MIC [15]: > 100 µg/mL
- MIC [39]: 1 µg/mL (≈ 1.25 µM)
- MIC [16]: 6 µg/mL (≈ 7.53 µM)
- MIC [17]: 0.25 µg/mL (≈ 0.314 µM)
- MIC [18]: > 100 µg/mL
- MIC [19]: 6 µg/mL (≈ 7.53 µM)
- growth and feed-conversion [20]: improves the growth and the feed-conversion markedly; also recorded: advantageous growth-promoting properties
- MIC [21]: 1.2 µg/mL (≈ 1.51 µM)
- MIC [22]: 1.2 µg/mL (≈ 1.51 µM)
- MIC [23]: 100 µg/mL (≈ 125 µM)
- MIC [24]: 100 µg/mL (≈ 125 µM)
- undesired pharmacological effect [40]: does not result in any undesired pharmacological effect
- MIC [25]: 0.45 µg/mL (≈ 0.565 µM)
- MIC [26]: 1.8 µg/mL (≈ 2.26 µM)
- MIC [27]: 6 µg/mL (≈ 7.53 µM)
- MIC [28]: > 100 µg/mL
- MIC [30]: 2.5 µg/mL (≈ 3.14 µM)
- MIC [31]: 0.6 µg/mL (≈ 0.753 µM)
- MIC [32]: 30 µg/mL (≈ 37.6 µM)
- MIC [33]: 1 µg/mL (≈ 1.25 µM)
- MIC [34]: > 100 µg/mL
- MIC [35]: 6 µg/mL (≈ 7.53 µM)
